The target in one assay is T1, human ETA receptors (Homo sapiens, UniProt P25101).
T1 construct: endogenous in cells; host or cells: TE 671 cells (ATCC HTB 139)
T1 sequence (P25101 21-427): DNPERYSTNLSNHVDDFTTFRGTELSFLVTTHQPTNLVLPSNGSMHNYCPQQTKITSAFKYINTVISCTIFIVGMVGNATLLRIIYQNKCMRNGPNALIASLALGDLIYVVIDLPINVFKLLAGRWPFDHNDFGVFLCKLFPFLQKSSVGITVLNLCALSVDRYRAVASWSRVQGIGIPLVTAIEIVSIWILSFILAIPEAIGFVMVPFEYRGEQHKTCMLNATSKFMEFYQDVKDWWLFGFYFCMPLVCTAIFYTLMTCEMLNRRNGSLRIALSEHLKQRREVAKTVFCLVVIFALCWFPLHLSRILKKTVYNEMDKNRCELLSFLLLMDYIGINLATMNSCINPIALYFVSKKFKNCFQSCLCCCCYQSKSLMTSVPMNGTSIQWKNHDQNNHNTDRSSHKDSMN
The assay is described as follows: Binding Test #1: inhibition of 125I-ET-1 binding to ETA receptors (TE 671 cell membranes). Conditions: for IC50: read-out: ETA. The text has this: (§1) Compounds that are potential endothelin antagonists are identified by testing their ability to compete with ^125I-labeled ET-1 for binding to human ETA receptors or ETB receptors present on isolated cell membranes. The effectiveness of the test compound as an antagonist or agonist of the biological tissue response of endothelin can also be assessed by measuring the effect on endothelin induced contraction of isolated rat thoracic aortic rings. The ability of the compounds to act as antagonists or agonists for ETB receptors can be assess by testing the ability of the compounds are to inhibit endothelin-1 induced prostacyclin release from cultured bovine aortic endothelial cells.
A. Endothelin Binding Inhibition—Binding Test #1: Inhibition of Binding to ETA Receptors
TE 671 cells (ATCC Accession No. HTB 139) express ETA receptors. These cells were grown to confluence in T-175 flasks. Cells from multiple flasks were collected by scraping, pooled and centrifuged for 10 min at 190×g. The cells were resuspended in phosphate buffered saline (PBS) containing 10 mM EDTA using a Tenbroeck homogenizer. The suspension was centrifuged at 4° C. at 57,800×g for 15 min, the pellet was resuspended in 5 ml of buffer A (5 mM HEPES buffer, pH 7.4 containing aprotinin (100 KIU/ml)) and then frozen and thawed once. 5 ml of Buffer B (5 mM HEPES Buffer, pH 7.4 containing 10 mM MnCl2 and 0.001% deoxyribonuclease Type 1) was added, the suspension mixed by inversion and then incubated at 37° C. for 30 minutes. The mixture was centrifuged at 57,800×g as described above, the pellet washed twice with buffer A and then resuspended in buffer C (30 mM HEPES buffer, pH 7.4 containing aprotinin (100 KIU/ml) to give a final protein concentration of 2 mg/ml and stored at −70° C. until use.
The membrane suspension was diluted with binding buffer (30 mM HEPES buffer, pH 7.4 containing 150 mM NaCl, 5mM MgCl2, 0.5% Bacitracin) to a concentration of 8 μg/50 μl. ^125I-endothelin-1 (3,000 cpm, […]) was added to 50 μL of either: (A) endothelin-1 (for non specific binding) to give a final concentration 80 nM); (B) binding buffer (for total binding); or (C) a test compound (final concentration 1 nM to 100 μM). The membrane suspension (50 μL), containing up to 8 μg of membrane protein, was added to each of (A), (B), or (C). Mixtures were shaken, and incubated at 4° C. for 16-18 hours, and then centrifuged at […] for 25 min at 2,500×g. Alternatively, the incubation was conducted at 24° C. […] This, must be kept in mind when comparing IC50 concentrations among compounds provided herein.
The supernatant, containing unbound radioactivity, was decanted and the pellet counted on a Genesys multiwell gamma counter. The degree of inhibition of binding (D) was calculated according to the following equation: [formula]
Each test was generally performed in triplicate.

The target of the next assay is T2, human ETB receptor (Homo sapiens, UniProt P24530).
T2 construct: expressed in transfected cells; host or cells: COS7 cells
T2 sequence (P24530 27-442): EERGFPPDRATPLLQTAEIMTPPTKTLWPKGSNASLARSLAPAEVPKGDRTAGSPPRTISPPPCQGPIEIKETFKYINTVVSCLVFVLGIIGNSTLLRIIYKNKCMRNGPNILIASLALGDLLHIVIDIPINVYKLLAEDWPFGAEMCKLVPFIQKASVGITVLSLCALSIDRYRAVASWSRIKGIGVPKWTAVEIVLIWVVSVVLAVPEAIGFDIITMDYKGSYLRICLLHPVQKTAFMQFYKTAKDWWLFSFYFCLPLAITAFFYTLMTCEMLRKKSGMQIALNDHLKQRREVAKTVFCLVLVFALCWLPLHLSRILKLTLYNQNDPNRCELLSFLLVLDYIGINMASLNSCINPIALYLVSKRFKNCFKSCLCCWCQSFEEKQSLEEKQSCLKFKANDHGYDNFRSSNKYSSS
As to the kind of experiment: Binding Test #2: inhibition of 125I-ET-1 binding to ETB receptors (transfected COS7 cell membranes). The settings on record: Table 1, read-out: ETB.
Text: as §1
B. Endothelin Binding Inhibition—Binding Test #2: Inhibition of Binding to ETB Receptors
COS7 cells were transfected with DNA encoding the ETB receptor, The resulting cells, which express the human ETB receptor, were grown to confluence in T-150 flasks. Membrane was prepared as described above. The binding assay was performed as described above using the membrane preparation diluted with binding buffer to a concentration of 1 μg/50 μl.
Briefly, the COS7 cells, described above, that had been transfected with DNA encoding the ETB receptor and express the human ETB receptor on their surfaces were grown to confluence in T-1 75 flasks. Cells from multiple flasks were collected by scraping, pooled and centrifuged for 10 min at 190×g. The cells were resuspended in phosphate buffered saline (PBS) containing 10 mM EDTA using a Tenbroeck homogenizer. The suspension was centrifuged at 4° C. 57,800 X g for 15 min, the pellet was resuspended in 5 ml of buffer A (5mM HEPES buffer, pH 7.4 containing aprotinin (100 KIU/ml)) and then frozen and thawed once. Five ml of Buffer B (5 mM HEPES Buffer, pH 7.4 containing 10 mM MnCl2 and 0.001% deoxyribonuclease Type 1) was added, the suspension mixed by inversion and then incubated at 37° C. for 30 minutes. The mixture was centrifuged at 57,800×g as described above, the pellet washed twice with buffer A and then resuspended in buffer C (30 mM HEPES buffer, pH 7.4 containing aprotinin (100 KIU/ml) to give a final protein concentration of 2 mg/ml.
The binding assay was performed as described above using the membrane preparation diluted to give 1 μg/50 μl of binding buffer.

[1] abbreviates: Table 1, † incubation at 24° C.
Where [2] appears, read: Table 3, † incubation at 24° C.

SMILES strings stand for the structures. Like-named read-outs stand apart in the source and are kept apart here. Bounds are passed on as bounds.

Data on 19 compounds can be found in patent US6683103B2, “Sulfonamides for treatment of endothelin-mediated disorders” (Texas Biotechnology Corporation, priority 1997, dated 2004).

For `Cc1ccc(/C=C/c2sccc2S(=O)(=O)Nc2onc(C)c2Br)cc1`, the IC50 worked out at 260 nM on human ETA receptors (setting [1]) and 413 nM at human ETB receptor († incubation at 24° C.).

Regarding `Cc1cc(C)c(OC(N)=O)c(C)c1NC(=O)c1sccc1S(=O)(=O)Nc1onc(C)c1Cl` [3-(((3-(((4-chloro-3-methyl-5-isoxazolyl)amino)sulfonyl)-2-thienyl)carbonyl)amino)-2,4,6-trimethyiphenyl carbamate], on human ETA receptors (setting [2]), the IC50 was 5.45 nM.

As for `COC(=O)Oc1c(C)cc(C)c(NC(=O)c2sccc2S(=O)(=O)Nc2onc(C)c2Cl)c1C` [3-(((3-(((4-chloro-3-methyl-5-isoxazolyl)amino)sulfonyl)-2-thienyl)carbonyl)amino)-2,4,6-trimethylphenyl methyl carbonate], the IC50 at human ETA receptors (setting [2]) came out at 0.75 nM.

As for `CCC(=O)c1cc(C)cc(C)c1NC(=O)c1sccc1S(=O)(=O)Nc1onc(C)c1Cl` [3-(((4-chloro-3-methyl-5-isoxazolyl)amino)sulfonyl)-N-(2,4-dimethyl-6-propionylphenyl)-2-thiophenecarboxamide], on human ETA receptors (Table 3), the ETA/ETB selectivity is recorded as 21000^∥. The IC50 on human ETA receptors (setting [2]) amounted to 0.61 nM.

Take `Cc1cc(C)c(NC(=O)c2sccc2S(=O)(=O)Nc2onc(C)c2Cl)c(C(=O)C2CCCCC2)c1` [3-(((4-chloro-3-methyl-5-isoxazolyl)amino)sulfonyl)-N-(2-(cyclohexylcarbonyl)-4,6-dimethylphenyl)-2-thiophenecarboxamide]: the ETA/ETB selectivity at human ETA receptors (Table 3) is reported as 1300^∥. Moreover, on human ETA receptors (setting [2]), the IC50 was found to be 14.9 nM.

In the case of `Cc1noc(NS(=O)(=O)c2cc(Br)c(Cl)s2)c1Br` [4-bromo-5-chloro-N-(4-Bromo-3-methyl-5-isoxazolyl)-thiophene-2-sulfonamide], the IC50 at human ETA receptors (Table 1, incubation at 4° C.) amounted to 359 nM; on human ETB receptor (incubation at 4° C.), 2670 nM.

With `Cc1cc(NS(=O)(=O)c2ccc(-c3ccon3)s2)on1` [5-(3-isoxazolyl)-N-(3-methyl-5-isoxazolyl)-2-thiophenesulfonamide], the IC50 on human ETA receptors (Table 1, incubation at 4° C.) is 5600 nM; on human ETB receptor (incubation at 4° C.) it was 6700 nM.

Consider `Cc1noc(NS(=O)(=O)c2cccn2-c2ccc(-c3ccccc3)cc2)c1Br` [(4-bromo-3-methyl-5-isoxazolyl)-1-(4′-biphenyl)pyrrole-2-sulfonamide], for which the IC50 at human ETA receptors (Table 1, incubation at 4° C.) is 9170 nM; on human ETB receptor (incubation at 4° C.), 7840 nM.

For the compound `Cc1noc(NS(=O)(=O)c2ccsc2NC(=O)Nc2sccc2S(=O)(=O)Nc2onc(C)c2C)c1C` [N,N′-bis{3-[3,4-dimethyl-5-isoxazolyl)aminosulfonyl]thien-2-yl}urea], the IC50 on human ETA receptors (Table 1, incubation at 4° C.) came out at 1010 ± 1030 nM; at human ETA receptors (setting [1]), 2700 nM; at human ETB receptor (incubation at 4° C.), 3700 ± 2700 nM; at human ETB receptor († incubation at 24° C.) it was 5900 nM.

Regarding `Cc1noc(NS(=O)(=O)c2ccsc2NC(=O)Nc2sccc2S(=O)(=O)Nc2onc(C)c2Br)c1Br` [N,N′-bis{3-[(4-bromo-3-methyl-5-isoxazolyl)aminosulfonyl)thien-2-yl} urea], the IC50 at human ETA receptors (Table 1, incubation at 4° C.) came to 69.2 nM; at human ETA receptors (setting [1]), 295 nM; on human ETB receptor (incubation at 4° C.), 290 nM; at human ETB receptor († incubation at 24° C.) it was 1190 nM.

As to `CC(=O)c1cc(C)cc(C)c1NC(=O)c1sc(C)cc1S(=O)(=O)Nc1onc(C)c1Cl` [N-(2-acetyl-4,6-dimethylphenyl)-3-(((4-chloro-3-methyl-5-isoxazolyl)amino)sulfonyl)-5-methyl-2-thiophenecarboxamide], at human ETA receptors (Table 3), the ETA/ETB selectivity was 9000^∥. For the same compound, the IC50 on human ETA receptors (setting [2]) came to 2.94 nM.

Turning to `Cc1cc(C)c(NC(=O)c2sccc2S(=O)(=O)Nc2onc(C)c2Cl)c(C(=O)c2ccccc2)c1` [N-(2-benzoyl-4,6-dimethylphenyl)-3-(((4-chloro-3-methyl-5-isoxazolyl)amino)sulfonyl)-2-thiophenecarboxamide], the ETA/ETB selectivity at human ETA receptors (Table 3) is listed as 6000^∥. Besides, the IC50 on human ETA receptors (setting [2]) stood at 4.26 nM.

As for `Cc1noc(NS(=O)(=O)c2ccsc2C(=O)Oc2ccc3c(c2)OCO3)c1C` [N-(3,4-dimenthyl-5-isoxazolyl)-2-[3,4-(methylenedioxy)phenox] [N-(3,4-dimenthyl-5-isoxazolyl)-2-[3,4-(methylenedioxy)phenoxycarbonyl]thiophene-3-sulfonamide], the IC50 at human ETA receptors (setting [1]) was 6100 nM; at human ETB receptor († incubation at 24° C.), above 50000 nM.

`Cc1noc(NS(=O)(=O)c2ccsc2C(=O)Nc2ccccc2)c1C` [N-(3,4-dimethyl-5-isoxazolyl)-2-(N-phenylaminocarbonyl)thiophene-3-sulfonamide]: the IC50 on human ETA receptors (Table 1, incubation at 4° C.) is 18.2 nM; at human ETB receptor (incubation at 4° C.), around 170000 nM.

Regarding `COC(=O)c1sccc1S(=O)(=O)Nc1onc(C)c1C` [N-(3,4-dimethyl-5-isoxazolyl)-2-(carbomethoxy)thiophene-3-sulfonamide], the IC50 at human ETA receptors (Table 1, incubation at 4° C.) is 367 nM.

On to `Cc1noc(NS(=O)(=O)c2ccco2)c1C` [N-(3,4-dimethyl-5-isoxazolyl)furan-2-sulfonamide], for which, on human ETA receptors (Table 1, incubation at 4° C.), the IC50 turned out to be 3130 nM.

On to `Cc1noc(NS(=O)(=O)c2cc(S(=O)(=O)c3ccccc3)cs2)c1Br` [N-(4-Bromo-3-methyl-5-isoxazolyl)-4-benzenesulfonylthiophene-2-sulfonamide], for which the IC50 on human ETA receptors (Table 1, incubation at 4° C.) stood at 383 nM.

With `Cc1ccc(OC(=O)c2sccc2S(=O)(=O)Nc2onc(C)c2Br)cc1` [N-(4-bromo-3-methyl-5-isoxazolyl)-2-[(4-methylphenoxy)carbonyl]thiophene-3-sulfonamide], the IC50 at human ETA receptors (setting [1]) was 122000 nM.

For the compound `COC(=O)c1cc(OC)c(OC)cc1NC(=O)c1sccc1S(=O)(=O)Nc1onc(C)c1Cl` [N-(4-chloro-3-methyl-5-isoxazolyl)2-{[4,5-dimethoxy-2,4,5-di] [N-(4-chloro-3-methyl-5-isoxazolyl)2-{[4,5-dimethoxy-2,4,5-dimethoxy-2-methoxycarbonyl)phenyl]phenylaminocarbonyl}thiophene-3-sulfonamide], at human ETA receptors (setting [1]), the IC50 is 3800 nM.
